Assay results reported in US20230084354A1, “NUTRACEUTICAL EXTRACTS OF HIPPOPHAE RHAMNOIDES AND TERMINALIA CHEBULA AND USES THEREOF” (Biomics, LLC, priority 2020, published 2023).

Test system: Human peripheral blood mononuclear cell (PBMC) cultures
Assay: CD69 and CD25 expression in human PBMC cultures, direct effects
Type: cell-based
Details: direct effect, 24 hours, vs untreated control; extract at the highest dose
Procedure: Next, the immune-modulating effects of the extract were tested. Human peripheral blood mononuclear cell (PBMC) cultures were used for this testing. A set of cultures were left untreated as negative control cultures for immune activation. Triplicate sets of cultures were treated with serial dilutions of the test product. The inflammatory bacterial lipopolysaccharide LPS from E. coli was used as a positive control for activation. The cultures were incubated for 24 hours, after which the cells and the culture supernatants were harvested and used to monitor the reactions in each culture. The cells were used for immunostaining and flow cytometry, specifically to evaluate the induction of two activation markers, CD69 and CD25, on NK cells, NKT cells, T lymphocytes, and monocytes/macrophages.

## Poly I:C
  CD69 expression on NK cells: increase
